Measured values taken from patent publication US8119614B2, “Substitution derivatives of N6-benzyladenosine, methods of their preparation, their use for preparation of drugs, cosmetic preparations and growth regulators, pharmaceutical preparations, cosmetic preparations and growth regulators containing these compounds” (Ustav Experimentalni Botaniky Akademie Ved Ceske Republiky, priority 2002, dated 2012).

Columns and labels:
[1] = system: human diploid fibroblasts (HCA cells); assay: Inhibition of senescence of mammal cells: β-galactosidase staining of senescent cells; assay type: cell-based; conditions: for Senescent cells (%) HCA25: passage 25; for Senescent cells (%) HCA45: passage 45; for Senescent cells (%) HCA80: passage 80
Procedure: In this example, human diploid fibroblasts (HCA cells with different levels of passage: passage 25—labelling HCA25; passage 45—labelling HCA45; passage 80—labelling HCA80) were used for studying β-galactosidase activity. Medium used for cells cultivation was removed, cells were washed twice with PBS and fixed in 2-3 ml of fixation agent consisting of 2% of formaldehyde and 0.2% of flutaraldehyde in PBS. Cells were incubated at room temperature for 5 min and subsequently washed twice with PBS. Cells were then incubated at 37° C. (without CO2) for 1 to 16 hours in 2-3 ml of solution comprising potassium ferricyanide (5 mM), potassium ferrocyanide (5 mM), MgCl2 (2 mM), X-gal (5-bromo-4-chloro-3-indolyl-β-D-galactopyranoside) (1 mg/ml) in citrate/phosphate buffer, pH 6.0. […] In this experiment only senescent cells were labelled due to the effect of β-galactosidase on the substrate.

HL-60 cells = assay: HL-60 cell proliferation and viability (FDA/PI staining); assay type: cell-based, human
Procedure: Cell culture. A suspension of human promyelocytic HL-60 cells was cultured in RPMI-1640 medium supplemented with a 10% calf foetal serum and antibiotics in 5% CO2 atmosphere at 37° C. Cells were maintained at density from 1×10^5 to 6×10^5 cells per ml. HL-60 cells were obtained from ECACC.
Cell viability assay. Double staining with fluorescein diacetate (FDA) and propidium iodide (PI) for discrimination of dead and living cells was used. Cells were stained in growing medium with PI at a concentration 10 μg/ml 5 min later FDA was added at a concentration 1 μg/ml. The percentage of dead cells (i.e., red stained cells) was evaluated using fluorescence microscopy (Mlejnek and Kolman 1999).

[2] = system: human malignant melanoma cells G361; assay: In vitro cytotoxic activity, Calcein AM assay, G-361; assay type: cell-based; conditions: 72 hours, read-out: IC 50 G-361
Summary of the method: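 Cells seeded at 10^4 per well, pre-incubated 24 h, then exposed to six 4-fold dilutions (top well concentration usually 166.7 μM, duplicates) for 72 h at 37 °C. Viability read by Calcein AM fluorescence after 1 h; GI50 taken from dose-response curves relative to control wells.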

caspase-3 = assay: Caspase protease activity measurement in cell extracts, caspase-3; assay type: cell-based, human; conditions: 20 μM, substrate Ac-DEVD-AMC (FIG. 9)
Procedure: Caspase protease activity measurement. Cells were washed in PBS and then extracted in buffer [50 mM HEPES, pH 7.4, 1 mM EDTA, 0.1% Chaps, 5 mM DTT, and proteinase inhibitor cocktail (Roche)] on ice. Cell extracts were centrifuged for 30 min at 30 000×g at 4° C. Clarified extract were immediately analysed or stored at −80° C. Measurement of proteolytic activity was done using synthetic fluorogenic substrates Ac-DEVD-AMC and Ac-LEHD-AMC for caspase-3 and -9, respectively. The assay was carried out in 1 ml tubes, aliquots of lysates (200-300 μg of total protein) were mixed with 1 ml of buffer (25 mM PIPES/KOH, 2 mM EGTA, 5 mM DTT, and 0.1% Chaps, pH 7.3) and reactions were initiated by adding 50 μM substrate. Samples were incubated for 1 hour at 30° C. before the fluorescence was determined. Excitation and emission wavelengths were the same for both substrates (380 nm and 445 nm, respectively).

Rosa multiflora = assay: In vitro and post vitro multiplication and rooting of rose; assay type: in vivo; conditions: for Root number per plant / Total root length per plant (cm): Ex vitro, after four weeks of acclimatising; for Flower number per explant / Number of new shoots per explant / Root number per explant / Total root length per explant (cm): In vitro, 10 μM, 8 weeks
[3] = system: spring wheat (variety Sandra); assay: Field studies: yield analysis of spring wheat crop; assay type: in vivo; conditions: spray of 10^−6 molar solution, Control = 100.0
Procedure: Crops (over the 4-year period) of spring wheat were sown in the experimental fields of Czech Agriculture University (CZU) (region of sugar beet production type) at a seeding rate of 400 germinative grains·m^−2 into ploughed and shoddy soil containing 116.1 mg/kg P, 228.3 mg/kg K, and 211.8 mg/kg Mg (agrochemical analyses were done at Department of Pedology CZU) (interval between ploughing and sowing is usually 3-4 days, longer only in case of adverse weather conditions). Preceding crop was rape. Soil preparation was done by the classical way using skid and harrow and after seeding is rolled.
Height of plants, leaf area, dry matter, development of vegetation opex—bases of future spike, and number of spikelets were monitored after germination in 14 day intervals, […]. From these primary data, values used in production physiology are derived, as leaf area index LAI, photosynthetic capacity LAD, tillering potential. Experiments with treatment of spring wheat crop (variety Sandra) are carried out on the field (area 10 m^2, four replicates) by spraying 1 litr of 10^−6 molar solution of tested compound (cytokinin) at the transition period from jointing stage to athesis stage (49 DC).
Yield analysis, evaluating spike lenght and seed number per spikelet (Σ Z/K) were carried out for 30 plant per each variant, yield from 1 m^2 and 1000 grain weight (HTS) was determined from 8 replicates, yield per ha was subsequently calculated.

| Structure (SMILES) | Senescent cells (%) HCA25 [1] | Senescent cells (%) HCA45 [1] | Senescent cells (%) HCA80 [1] | IC50 [2] | HTS (%) (1000 grain weight) [3] | Yield(%) [3] | Σ Z/K (%) (seed number per spikelet) [3] | Σ spike/m^2 (%) [3] | also measured |
| --- | --- | --- | --- | --- | --- | --- | --- | --- | --- |
| OC[C@H]1O[C@@H](n2cnc3c(NCc4ccccc4F)ncnc32)[C@H](O)[C@@H]1O [2-fluorobenzylamino, 6-(2-fluorobenzylamino)purine riboside] | 4% | 4% | 15% | – | – | – | – | – | – |
| COc1cccc(CNc2ncnc3c2ncn3[C@@H]2O[C@H](CO)[C@@H](O)[C@H]2O)c1O [2-hydroxy-3-methoxybenzylamino, 6-(2-hydroxy-3-methoxybenzylamino)purine riboside] | – | – | – | 148 µM | – | – | – | – | inhibition of HL-60 cell proliferation (HL-60 cells; 2.5-60 μM (FIG. 4)): inhibit cell proliferation; cytotoxicity of the compound itself versus its phosphorylated forms (HL-60 cells; HL-60 cells): is not cell cytotoxic by itself; activation of caspase-3 (caspase-3): activate caspase proteases, especially caspase-9 and -3 |
| COc1ccccc1CNc1ncnc2c1ncn2[C@@H]1O[C@H](CO)[C@@H](O)[C@H]1O [2-methoxybenzylamino, 6-(2-methoxybenzylamino)purine riboside] | 4% | 4% | 16% | > 167 µM | – | – | – | – | Root number per plant (Rosa multiflora): 1.6; Total root length per plant (cm) (Rosa multiflora): 4.8 cm; Flower number per explant (Rosa multiflora): 0.17; Number of new shoots per explant (Rosa multiflora): 1.4; Root number per explant (Rosa multiflora): 0.0; Total root length per explant (cm) (Rosa multiflora): 0.0 cm |
| OC[C@H]1O[C@@H](n2cnc3c(NCc4ccc(Cl)c(Cl)c4)ncnc32)[C@H](O)[C@@H]1O [3,4-dichlorobenzylamino, 6-(3,4-dichlorobenzylamino)purine riboside] | – | – | – | – | 101.5% | 113.3% | 111.9% | 99.7% | – |
| OC[C@H]1O[C@@H](n2cnc3c(NCc4cccc(Br)c4)ncnc32)[C@H](O)[C@@H]1O [3-bromobenzylamino, 6-(3-bromobenzylamino)purine riboside] | – | – | – | – | 101.5% | 131.8% | 123.8% | 104.9% | – |
| OC[C@H]1O[C@@H](n2cnc3c(NCc4cccc(Cl)c4)ncnc32)[C@H](O)[C@@H]1O [3-chlorobenzylamino, 6-(3-chlorobenzylamino)purine riboside] | – | – | – | – | 108.3% | 128.8% | 119.1% | 100.5% | – |
| OC[C@H]1O[C@@H](n2cnc3c(NCc4cccc(F)c4)ncnc32)[C@H](O)[C@@H]1O [3-fluorobenzylamino, 6-(3-fluorobenzylamino)purine riboside] | 3% | 5% | 13% | 15.7 µM | – | – | – | – | – |
| COc1cccc(CNc2ncnc3c2ncn3[C@@H]2O[C@H](CO)[C@@H](O)[C@H]2O)c1 [3-methoxybenzylamino, 6-(3-methoxybenzylamino)purine riboside] | 5% | 6% | 12% | > 167 µM | – | – | – | – | Root number per plant (Rosa multiflora): 1.4; Total root length per plant (cm) (Rosa multiflora): 3.5 cm; Flower number per explant (Rosa multiflora): 0.00; Number of new shoots per explant (Rosa multiflora): 5.6; Root number per explant (Rosa multiflora): 0.0; Total root length per explant (cm) (Rosa multiflora): 0.0 cm |
